Measurements reported in ChEMBL document CHEMBL1154915, “Selection of inhibitory peptides for Aurora-A kinase from a phage-displayed library of helix-loop-helix peptides” (Bioorg Med Chem Lett, 2010).
Active and inactive are the calls of the source. Residues, ends and D or L forms follow the SMILES beside them.

Biological target: T1, Aurora kinase A (Homo sapiens) (UniProt O14965)
T1 sequence (whole entry): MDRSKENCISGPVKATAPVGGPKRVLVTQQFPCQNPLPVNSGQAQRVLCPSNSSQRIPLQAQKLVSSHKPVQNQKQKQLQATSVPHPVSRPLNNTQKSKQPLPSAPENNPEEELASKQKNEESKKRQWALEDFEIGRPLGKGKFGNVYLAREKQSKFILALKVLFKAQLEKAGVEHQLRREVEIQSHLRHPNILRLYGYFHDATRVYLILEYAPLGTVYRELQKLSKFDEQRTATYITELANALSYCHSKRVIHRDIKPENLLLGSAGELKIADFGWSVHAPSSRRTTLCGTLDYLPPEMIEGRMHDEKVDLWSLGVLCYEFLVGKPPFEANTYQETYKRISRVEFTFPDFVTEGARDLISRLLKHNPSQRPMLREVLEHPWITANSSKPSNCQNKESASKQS
Experiment: Binding affinity to GST-tagged Aurora A after 1 hr by ELISA

Compound	Activity
CSCC[C@H](NC(=O)[C@@H]1CCCN1C(=O)[C@H](CCC(N)=O)NC(=O)[C@@H]1CCCN1C(=O)CNC(=O)[C@H](CCC(=O)O)NC(=O)[C@H](CC(C)C)NC(=O)[C@H](C)NC(=O)[C@H](C)NC(=O)[C@H](CC(C)C)NC(=O)[C@H](CCC(=O)O)NC(=O)[C@H](C)NC(=O)[C@H](CCC(=O)O)NC(=O)[C@H](CC(C)C)NC(=O)[C@H](C)NC(=O)[C@H](C)NC(=O)[C@H](CC(C)C)NC(=O)[C@H](CCC(=O)O)NC(=O)[C@@H](C)N)C(=O)N[C@@H](Cc1c[nH]c2ccccc12)C(=O)NCC(=O)N[C@@H](CO)C(=O)N[C@@H](Cc1c[nH]c2ccccc12)C(=O)N[C@@H](CCCNC(=N)N)C(=O)NCC(=O)N[C@@H](CCCCN)C(=O)N[C@@H](CC(C)C)C(=O)N[C@@H](C)C(=O)N[C@@H](C)C(=O)N[C@@H](CC(C)C)C(=O)N[C@@H](CCCCN)C(=O)N[C@@H](C)C(=O)N[C@@H](CCCCN)C(=O)N[C@@H](CC(C)C)C(=O)N[C@@H](C)C(=O)N[C@@H](C)C(=O)N[C@@H](CC(C)C)C(=O)N[C@@H](CCCCN)C(=O)N[C@@H](C)C(=O)O	Active
CC(C)C[C@H](NC(=O)[C@H](C)NC(=O)[C@H](C)NC(=O)[C@H](CC(C)C)NC(=O)[C@H](CCC(=O)O)NC(=O)[C@H](C)NC(=O)[C@H](CCC(=O)O)NC(=O)[C@H](CC(C)C)NC(=O)[C@H](C)NC(=O)[C@H](C)NC(=O)[C@H](CC(C)C)NC(=O)[C@H](CCC(=O)O)NC(=O)[C@H](C)N)C(=O)N[C@@H](CCC(=O)O)C(=O)NCC(=O)N[C@@H](CS)C(=O)N[C@H](C(=O)N[C@@H](CO)C(=O)N[C@H](C(=O)N[C@@H](Cc1ccc(O)cc1)C(=O)N[C@@H](CS)C(=O)N[C@H](C(=O)N[C@H](C(=O)N[C@@H](CO)C(=O)NCC(=O)N[C@@H](CCCCN)C(=O)N[C@@H](CC(C)C)C(=O)N[C@@H](C)C(=O)N[C@@H](C)C(=O)N[C@@H](CC(C)C)C(=O)N[C@@H](CCCCN)C(=O)N[C@@H](C)C(=O)N[C@@H](CCCCN)C(=O)N[C@@H](CC(C)C)C(=O)N[C@@H](C)C(=O)N[C@@H](C)C(=O)N[C@@H](CC(C)C)C(=O)N[C@@H](CCCCN)C(=O)N[C@@H](C)C(=O)O)C(C)C)[C@@H](C)O)C(C)C)[C@@H](C)O (H-AELAALEAELAALEGCTSVYCTVSGKLAALKAKLAALKA-OH)	Active
H-AELAALEAELAALEGAPCLVMTTAGKLAALKAKLAALKA-OH	Active
H-AELAALEAELAALEGARHFYVQSVGKLAALKAKLAALKA-OH	Active
H-AELAALEAELAALEGARSLVAQMTGKLAALKAKLAALKA-OH	Active
H-AELAALEAELAALEGDVAVAVRWDGKLAALKAKLAALKA-OH	Active
H-AELAALEAELAALEGERRLIIFNSGKLAALKAKLAALKA-OH	Active
H-AELAALEAELAALEGFPGRFGLFVGKLAALKAKLAALKA-OH	Active
H-AELAALEAELAALEGGGGGGGKLAALKAKLAALKAY-NH2	inactive
H-AELAALEAELAALEGGKVAAWGFWGKLAALKAKLAALKA-OH	Active
H-AELAALEAELAALEGGLSEVHGLSGKLAALKAKLAALKA-OH	Active
H-AELAALEAELAALEGGSPRWYELLGKLAALKAKLAALKA-OH	Active
H-AELAALEAELAALEGGTKMWSLLVDGKLAALKAKLAALKA-OH	Active
H-AELAALEAELAALEGGYERRGWGVTGKLAALKAKLAALKA-OH	Active
H-AELAALEAELAALEGKGTQMWWLLGKLAALKAKLAALKA-OH	Active
H-AELAALEAELAALEGKVYMFWTIMGKLAALKAKLAALKA-OH	Active
H-AELAALEAELAALEGLEGKSMGFIGKLAALKAKLAALKA-OH	Active
H-AELAALEAELAALEGLQQVLSYIFGKLAALKAKLAALKA-OH	Active
H-AELAALEAELAALEGLQTMWHSLWGKLAALKAKLAALKA-OH	Active
H-AELAALEAELAALEGLVMGVKAFLGKLAALKAKLAALKA-OH	Active
H-AELAALEAELAALEGMRDWLIIGFGKLAALKAKLAALKA-OH	Active
H-AELAALEAELAALEGNISRFWVLAGKLAALKAKLAALKA-OH	Active
H-AELAALEAELAALEGQGRADMSILGKLAALKAKLAALKA-OH	Active

Compound	Activity
H-AELAALEAELAALEGQLWMLNTILGKLAALKAKLAALKA-OH	Active
H-AELAALEAELAALEGQVGSTRLLSGKLAALKAKLAALKA-OH	Active
H-AELAALEAELAALEGRDQVMWFLHGKLAALKAKLAALKA-OH	Active
H-AELAALEAELAALEGRRAVWPFGFGKLAALKAKLAALKA-OH	Active
H-AELAALEAELAALEGRRVVVSFAWDGKLAALKAKLAALKA-OH	Active
H-AELAALEAELAALEGRSEDPVCSWGKLAALKAKLAALKA-OH	Active
H-AELAALEAELAALEGSGAWMGSLLGKLAALKAKLAALKA-OH	Active
H-AELAALEAELAALEGSGMLAHFSWGKLAALKAKLAALKA-OH	Active
H-AELAALEAELAALEGSQDNARSLWGKLAALKAKLAALKA-OH	Active
H-AELAALEAELAALEGSRNQMYWLYGKLAALKAKLAALKA-OH	Active
H-AELAALEAELAALEGSRRMWNAYEGKLAALKAKLAALKA-OH	Active
H-AELAALEAELAALEGSSERKLVLLGKLAALKAKLAALKA-OH	Active
H-AELAALEAELAALEGSVAQLGLLLGKLAALKAKLAALKA-OH	Active
H-AELAALEAELAALEGVGEFSVSLLGKLAALKAKLAALKA-OH	Active
H-AELAALEAELAALEGWGGLMGWISGKLAALKAKLAALKA-OH	Active
H-AELAALEAELAALEGWLIELLWIVGKLAALKAKLAALKA-OH	Active
H-AELAALEAELAALEGWRRRLNNWWGKLAALKAKLAALKA-OH	Active
H-AELAALEAELAALEGWVGMREVWRGKLAALKAKLAALKA-OH	Active
H-AELAALEAELAALEGWVQVAQKVRGKLAALKAKLAALKA-OH	Active
H-AELAALEAELAALEGYEGQFMWLIGKLAALKAKLAALKA-OH	Active
H-AELAALEAELAAPEGSQERKGVLAGKLAALKAKLAALKA-OH	Active
H-AELAALEAELAPLEGYVSAGSQLWDGKLAALKAKLAALKA-OH	Active

Biological target: T1, Aurora kinase A (Homo sapiens)
Experiment: Inhibition of Aurora A at 100 uM by IMAP fluorescence polarization assay

Compound	inhibition
H-AELAALEAELAALEGARHFYVQSVGKLAALKAKLAALKA-OH	inactive
H-AELAALEAELAALEGERRLIIFNSGKLAALKAKLAALKA-OH	20%
H-AELAALEAELAALEGGGGGGGKLAALKAKLAALKAY-NH2	inactive
H-AELAALEAELAALEGRRVVVSFAWDGKLAALKAKLAALKA-OH	35%
H-AELAALEAELAALEGSSERKLVLLGKLAALKAKLAALKA-OH	17%
H-AELAALEAELAALEGVGEFSVSLLGKLAALKAKLAALKA-OH	inactive
H-GRRVVVAFAWD-NH2	inactive

Biological target: T1, Aurora kinase A (Homo sapiens)
Experiment: Inhibition of Aurora A at 10 uM by IMAP fluorescence polarization assay

Compound	inhibition
H-AELAALEAELAALEGRRVVVAFAWDKLAALKAKLAALKA-NH2	42%
